Measured values published in ChEMBL document CHEMBL1201862, “PubChem BioAssay data set” (2004).
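48-hour exposure; five concentrations; linearly interpolated endpoints. GI50 marks 50% less growth.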 Activity calls are given as the source filed them. Rule as the data show it: active = GI50 up to about 1.1 µM and inactive = higher.

Experiments:
Assay in all cases: NCI anticancer screen, dose series, 48 h
786-0 = tested on: 786-0
Hs-578T = tested on: Hs-578T
DMS-273 = tested on: DMS-273
HOP-18 = tested on: HOP-18
DMS-114 = tested on: DMS-114
M19-MEL = tested on: M19-MEL
KM-20L2 = tested on: KM-20L2
LXFL 529 = tested on: LXFL 529
RXF 631 = tested on: RXF 631

Measured: GI50

CN(C)CCNC(=O)c1cccc2[nH]c(-c3ccncc3)nc12
inactive: 786-0 2.04 µM | Hs-578T 4.59 µM

CC(=O)Oc1c(OC(C)=O)c(-c2ccc(O)c(O)c2)c(O)c(O)c1-c1ccc(O)cc1
inactive: DMS-273 > 100 µM | HOP-18 > 100 µM | DMS-114 21.3 µM | M19-MEL 24.4 µM

COc1cccc(NC(=O)C(=O)C(C(=O)c2ccccc2F)C2OC(=O)c3ccccc32)c1 (centres undefined)
inactive: KM-20L2 33.3 µM | DMS-273 29 µM | M19-MEL 22.9 µM | LXFL 529 33.6 µM

COc1cc(CN(C)N2C(=O)c3cccc4cc([N+](=O)[O-])cc(c34)C2=O)cc(OC)c1OC
inactive: Hs-578T 44.1 µM

COc1nc(Cl)nc(N[C@H](C)c2c3ccccc3cc3ccccc23)n1
inactive: Hs-578T 7.69 µM

CCOC(=O)CCn1[nH]c(=O)c(Cl)c(Cl)c1=O
inactive: KM-20L2 > 100 µM | 786-0 > 100 µM | RXF 631 > 100 µM | DMS-273 > 100 µM | HOP-18 > 100 µM | DMS-114 > 100 µM | M19-MEL > 100 µM | LXFL 529 > 100 µM

O=C1NC(O)c2cc3ccccc3cc2O1 (centres undefined)
inactive: 786-0 > 100 µM | Hs-578T 37.1 µM

c1ccc(C2=NCCN2)c(C2=NCCN2)c1
inactive: 786-0 > 100 µM | Hs-578T > 100 µM

COc1ccc2oc3c(ccc[n+]3C)c(=O)c2c1
inactive: Hs-578T > 100 µM

COc1c2ccoc2c(S(=O)(=O)Nc2ccc(Cl)cc2)c2oc(C)cc(=O)c12
inactive: KM-20L2 > 100 µM | DMS-273 > 100 µM | HOP-18 > 54.8 µM | DMS-114 > 68.2 µM | M19-MEL > 100 µM

CCN(CC)CCCNC(=O)c1ccccc1Nc1c(Cl)cccc1Cl
inactive: KM-20L2 2.56 µM | DMS-273 17.3 µM | DMS-114 12.2 µM | M19-MEL 3.28 µM | LXFL 529 14.6 µM

O=C(O)CCCCCCC[C@@H]1S[C@H]1CCCCCCO
inactive: KM-20L2 > 100 µM | DMS-273 > 100 µM | HOP-18 > 100 µM | DMS-114 > 100 µM | M19-MEL > 100 µM

CC(C)CC/N=c1/cc2n(-c3ccc(Cl)cc3)c3ccccc3nc-2cc1Nc1ccc(Cl)cc1
inactive: KM-20L2 1.34 µM | DMS-273 14.6 µM | HOP-18 7.05 µM | DMS-114 1.94 µM | M19-MEL 6.89 µM

O=c1cnn(C/C=C/CP(=O)(O)O)c(=O)[nH]1
inactive: Hs-578T > 100 µM

Nc1nc(N)nc(-c2ccccc2NS(=O)(=O)c2ccc([N+](=O)[O-])cc2)n1
inactive: KM-20L2 > 100 µM | DMS-273 55.8 µM | HOP-18 > 100 µM | DMS-114 25.8 µM | M19-MEL 34.9 µM

CCOC(=O)C(C)OC(=O)c1ccc(C)cc1 (centres undefined)
inactive: KM-20L2 > 100 µM | RXF 631 > 100 µM | DMS-273 > 100 µM | HOP-18 > 100 µM | DMS-114 > 100 µM | M19-MEL > 100 µM | LXFL 529 > 100 µM

CN(C)CCNc1ccc2nnn3c4ccc(O)cc4c(=O)c1c23
inactive: KM-20L2 7.82 µM | 786-0 2.15 µM | HOP-18 21.3 µM | DMS-114 5.79 µM | Hs-578T 2.03 µM | LXFL 529 3.01 µM
